The values that follow come from patent US9518283B1, “Selective enrichment media and uses thereof” (priority 2012, dated 2016).

The test system of experiment [1] is Shiga toxin-producing E. coli and Salmonella. It is filed as cell-based.
The subject of experiment [2] is non-Salmonella gram negative species. Put plainly: Media formulations / selective agents tested against competitor species. It is filed as cell-based. On the procedure:
Several media formulations were tested for permitting growth of Salmonella while inhibiting growth of non-Salmonella species. […] To minimize the potential of such environmental microflora to contribute to false positive reactions in selective indicator media, flavonoid compounds were investigated. Myricetin was tested as a potential suitable inhibitor for at least some of these gram negative species.

Turning to `O=C1CN(N=Cc2ccc([N+](=O)[O-])o2)C(=O)N1` [nitrofurantoin, 1-[[(5-Nitro-2-furanyl)methylene]amino]-2,4-imidazolidinedione], the “effectiveness against Shiga toxin-producing E. coli and Salmonella” value in experiment [1] is on record as “surprisingly ineffective”.

On to `O=c1c(O)c(-c2cc(O)c(O)c(O)c2)oc2cc(O)cc(O)c12` [Myricetin], for which the effectiveness as inhibitor entry is “of little use” in experiment [2] (Citrobacter and E. coli inactive isolates); “effective” in experiment [2] (K. oxytoca and E. aerogenes). For the same compound, the inhibition entry in experiment [2] (Enterobacter and Klebsiella spp.) was “inhibits”.

On to `CCN(CC)c1ccc(C(=C2C=CC(=[N+](CC)CC)C=C2)c2ccccc2)cc1` [Brilliant green], for which the “effect against Shiga toxin-producing E. coli (or Salmonella)” value in experiment [1] is on record as “no effect”.
